Measurements from patent publication US7232837B2, “Stereoisomers with high affinity for adrenergic receptors” (McNeil-PPC, Inc., priority 1999, dated 2007).

Tests used:
Sprague Dawley rats [1] = assay: Nasal airway pressure in histamine-challenged rats
Rat = assay: Dosage which raised mean arterial pressure 10%, rat; format: in vivo
Sprague Dawley rats [2] = assay: Nasal airway pressure in non-histamine-challenged rats; settings: for Mean Decrease in Nasal Airway Pressure: rats, i.v., ± SEM
Dog = assay: Dosage which raised mean arterial pressure 10%, dog; format: in vivo
α2 adrenergic receptors = assay: Alpha-2 binding, 125iodoclonidine, canine brain (frontal cortex) membranes; design: species or system canine (mongrel dogs); settings: canine brain membranes; for IC50: inhibition of specific p-iodoclonidine binding; for Ki: p-iodoclonidine
Protocol: BRAIN ALPHA-2 RECEPTORS: Membranes of mongrel dogs were harvested from the canine frontal cortex and prepared as described for lung except that the final membrane protein concentration was adjusted to 0.5 mg/ml.
ALPHA-2 BINDING ^125IODOCLONIDINE. […] Nonspecific binding was determined in separate incubations in the presence of 10 μM phentolamine. The final concentration of p-iodoclonidine was 44–45 pM in competition studies and between 50 pM and 10 nM in saturation experiments. Bound and free p-^125iodoclonidine were separated and the bound quantified as described above for the ICYP assays. […] BETA-2 BINDING, ^125IODOCYANOPINDOLOL (^125ICYP). […] Nonspecific binding was determined in separate incubations in the presence of 2 μM d,l-propranolol. Each experimental point was determined in triplicate. […] Incubations were terminated as described above for the α1 assays. Filters were placed into polyethylene tubes and the bound ligand was determined by gamma spectrometry (Sano et al., 1993).
All data were analyzed with the aid of microcomputer nonlinear curve fitting programs (PRISM 2.0, Graphpad Software, San Diego Calif.).
The receptors resident in each of the three membrane preparations were evaluated by standard saturation analysis following the addition of increasing concentrations of the appropriate radioligand. […] The radio ligand added for subsequent α2-displacement assays was adjusted to evaluate only the high affinity receptor. Contributions from p-iodoclonidine binding to imidazoline receptors in the α2-displacement assay were evaluated with epinephrine.
The variable, I, is the concentration of tracer added and the variable, Kd, is the equilibrium dissociation constant empirically determined for this receptor population.

Compound | nasal airway pressure, Post Drug (Sprague Dawley rats [1]; 100% dose i.v. after histamine challenge) | nasal airway pressure, % Change (Sprague Dawley rats [1]; 100% dose i.v. after histamine challenge, post drug vs post histamine) | nasal airway pressure, Post Histamine (Sprague Dawley rats [1]; after intranasal histamine 50 mM, before drug) | nasal airway pressure, Control (Sprague Dawley rats [1]; before histamine and drug) | Dosage of Enantiomer which raised mean arterial pressure 10%, Rat (Rat) | Mean Decrease in Nasal Airway Pressure (Sprague Dawley rats [2]; 5% of the dose that increased mean arterial pressure 10%) | Mean Decrease in Nasal Airway Pressure (Sprague Dawley rats [2]; 10% of the dose that increased mean arterial pressure 10%) | Mean Decrease in Nasal Airway Pressure (Sprague Dawley rats [2]; 25% of the dose that increased mean arterial pressure 10%) | Mean Decrease in Nasal Airway Pressure (Sprague Dawley rats [2]; 50% of the dose that increased mean arterial pressure 10%) | nasal airway pressure, Post Drug (Sprague Dawley rats [2]; 100% dose i.v. (jugular vein), non-histamine-challenged rats) | nasal airway pressure, % Change (Sprague Dawley rats [2]; 100% dose i.v., non-histamine-challenged rats, post drug vs control) | nasal airway pressure, Control (Sprague Dawley rats [2]; before drug, non-histamine-challenged rats) | Dosage of Enantiomer which raised mean arterial pressure 10%, Dog (Dog) | IC50 (α2 adrenergic receptors) | Ki (α2 adrenergic receptors)
CNC[C@@H](O)c1cccc(O)c1 [(+)-Phenylephrine, (+)-phenylephrine] | 5.5 ± 0.5 mm water | −35.2 ± 2.5% | 8.7 ± 1.1 mm water | 6.5 ± 0.4 mm water | 24 µg | −4.00 ± 1.2 | −2.5 ± 1.0 | −4.6 ± 1.4 | −10.2 ± 3.9 | 8 ± 0.3 mm H2O | −12.2 ± 3.1% | 9 ± 0.4 mm H2O | 80 µg/kg |  | 
(+)-norpseudoephedrine |  |  |  |  |  |  |  |  |  |  |  |  |  | 5 µM | 4 µM
(−)-norpseudoephedrine |  |  |  |  |  |  |  |  |  |  |  |  |  | 10 µM | 8 µM
